This is an account of results in patent US6037335A, “Phosphonate-nucleotide ester derivatives” (Mitsubishi Chemical Corporation, priority 1993, dated 2000).

As usually defined, the inhibition is the change of the read-out against control, counted positive when it falls.

Read-outs that look alike come from different tables or passages of the source. Some results are limits rather than exact numbers.

The test system of series [1] is HBV. The experiment in a line: Inhibition of HBV growth (HBV-DNA synthesis in HB611 cells, southern blotting). The class given is cell-based. Details: dose or concentration left out as unconfirmed. Particulars: Hepatitis B virus, 408 h, DNA recovered day 17. The procedure:
(§1) HB611 cells (recombinant human lever cancer cell producing HBV, 2×10^4) was incubated on Dulbecco ME medium containing bovine fetal serum, streptomycin ([…]), penicillin (100 IU/ml) and G-418 (0.2 mg/ml) at 37° C. On the 2nd and 5th days of cultivation, the medium was changed, then the media containing specimens at final concentration of 10 mM were substituted on the 8th, 11th and 14th days. On 17 days of cultivation, DNA of the cell was recovered. The amount of HBV-DNA was measured by southern blotting, and inhibition of HBV-DNA synthesis in the cell was determined. In addition, the concentration of the compound required for 50% death of the HB611 cells was determined.

Series [2] deals with HBV. The experiment in a line: Inhibition of HBV growth in rat serum upon oral administration (HB611 cells cultured with 5% serum). As to conditions: Hepatitis B virus, read-out: HBV-DNA Synthesis Inhibition; for inhibition at 500 mg/kg: single oral dose 0.5 g/kg. In kind it is in vivo. On the procedure:
(§2) Inhibition of HBV growth in rat or mouse serum upon oral administration
(§3) Groups of rats (3 rats per group) were received single oral dose of specimen (1 g/kg or 0.5 g/kg), bled at 1 hour after administration and serum was prepared. Separately, groups of mice (3 mice per group) were received single oral dose of specimen (0.3 g/kg), bled at 30 minutes after administration and serum was prepared.
(§4) HB611 cells (2×10^4) were incubated on Dulbecco ME medium containing 10% bovine fetal serum, streptomycin ([…]), penicillin (100 IU/ml) and G-418 (0.2 mg/ml) at 37° C. On the 2nd and 5th days of cultivation, the medium was changed, then substituted with a medium containing 5% of the above serum (rat or mouse serum after oral administration of the specimen) on the 8th, 11th and 14th day, and DNA of the cell was recovered on the 17th days of cultivation. The amount of HBV-DNA was measured by southern blotting, and intracellular HBV-DNA synthesis inhibition was determined. For reference, the same experiment was conducted on PMEA.

Series [3] can be described thus: Concentration required for 50% death of HB611 cells. In kind it is cell-based. As to conditions: human, read-out: LD50 of HB611 cell. On the procedure:
as §1

The subject of another series is hepatitis B virus. Particulars: literature; cited from earlier work.
The test system of series [4] is human immunodeficiency virus (HIV). Particulars: literature; cited from earlier work.
Series [5] relates to herpes simplex viruses type-I (HSV-1). Particulars: literature; cited from earlier work.
Series [6] deals with herpes simplex viruses type-II (HSV-2). As to conditions: literature; cited from earlier work.
The subject of series [7] is HBV. In words: Inhibition of HBV growth in mouse serum upon oral administration (HB611 cells cultured with 5% serum). In kind it is in vivo. As to conditions: Hepatitis B virus, HB611, 0.5 h, single oral dose 0.3 g/kg, serum 30 minutes after administration, 5% serum in medium, read-out: HBV-DNA Synthesis Inhibition. The procedure:
as §2, §3, §4

[8] abbreviates: HB611, Rat, serum 1 hour after administration, 5% serum in medium.
The mark [9] stands for this setting: HB611, Rat, single oral dose 1 g/kg, serum 1 hour after administration, 5% serum in medium.

For the compound `Nc1nc2ncn(CCOCP(=O)(OCC(F)(F)F)OCC(F)(F)F)c2c(=O)[nH]1` [Example 21, 7-[2-[bis(2,2,2-trifluoroethyl)phosphonylmethoxy]ethyl]guanine], the inhibition in the series on HBV [1] was 71.3%.
As to `CC(=O)NCCOP(=O)(COCCn1cnc2c(N)ncnc21)OCCNC(C)=O` [Reference Example 1, 9-[[2-bis(2-acetamidethyl)phosphonylmethoxy]ethyl]adenine, reference compound], in the series with HBV [2] (setting [8]), the inhibition at 500 mg/kg was 0%. Further, the CC50 in series [3] was > 1000 µM.
For `CCCCC(=O)OCCOP(=O)(COCCn1cnc2c(N)ncnc21)OCCOC(=O)CCCC` [Example 18, 9-[[2-bis(2-valeryloxyethyl)phosphonylmethoxy]ethyl]adenine], in the series with HBV [1], the inhibition was 73.4%. The inhibition at 500 mg/kg with HBV [2] (setting [8]) was 61.4%. Besides, in series [3], the CC50 amounted to 47 µM.
On the same counts, the results for `Nc1ncnc2c1ncn2CCOCP(=O)(OCCOCc1ccccc1)OCCOCc1ccccc1` [Example 16, 9-[[2-bis(2-benzyloxyethyl)phosphonylmethoxy]ethyl]adenine] are 57.8%, 43.6% and 178 µM.
The matching figures for `Nc1ncnc2c1ncn2CCOCP(=O)(OCCO)OCCO` [Reference Example 2, 9-[[2-bis(2-hydroxyethyl)phosphonylmethoxy]ethyl]adenine, reference compound]: 31%, 0% and > 1000 µM.
For the compound `Nc1ncnc2c1ncn2CCOCP(=O)(O)O` [PMEA, 9-(2-phosphonylmethoxy)ethyladenine], the “reported to be effective on hepatitis B virus” value in the series with hepatitis B virus is recorded as “effective”. In addition, in series [4], the “reported to be effective on human immunodeficiency virus” value is “effective”. Further, in the series with HBV [2] (HB611, po, 1 h), the inhibition at 1000 mg/kg amounted to 35.5%. Also, the “reported to be effective on herpes simplex virus type-I” value in series [5] is “effective”. Moreover, in series [6], the “reported to be effective on herpes simplex virus type-II” value is reported as “effective”.
With `COP(=O)(COCCn1cnc2c(N)nc(N)nc21)OCC(F)(F)F` (centres unmarked) [Example 13, 9-[2-[methyl(2,2,2-trifluoloethyl)phosphonylmethoxy]ethyl]-2,6-diaminopurine], in the series on HBV [2] (HB611, po, 1 h), the inhibition at 1000 mg/kg came out at 77.7%. For the same compound, the CC50 in series [3] was > 1000 µM.
Turning to `Nc1c2ncn(CCOCP(=O)(OCC(F)(F)F)OCC(F)(F)F)c2nc[n+]1[O-]` [Example 22], in the series on HBV [1], the inhibition is 76.2%. The inhibition at 300 mg/kg in the series on HBV [7] was found to be 15.2%.
Consider `Nc1nc(Cl)c2c(ncn2CCOCP(=O)(OCC(F)(F)F)OCC(F)(F)F)n1` [Example 4, 7-[2-[bis(2,2,2-trifluoroethyl)phosphonylmethoxy]ethyl]-2-amino-6-chloropurine], for which the inhibition at 300 mg/kg in the series with HBV [7] was 36.3%.
In the series on HBV [1], `Cn1c(N)nc2c(ncn2CCOCP(=O)(OCC(F)(F)F)OCC(F)(F)F)c1=O` [Example 26, 9-[2-[bis(2,2,2-trifluoroethyl)phosphonylmethoxy]ethyl]-1-methylguanine] yielded an inhibition of 99.9%.
In the case of `COP(=O)(COCCn1cnc2c(N)ncnc21)OCC(F)(F)F` (centres unmarked) [Example 12, 9-[2-[methyl(2,2,2-trifluoloethyl)phosphonylmethoxy]ethyl]adenine], the inhibition at 1000 mg/kg in the series on HBV [2] (HB611, po, 1 h) stood at 92.9%. The CC50 in series [3] was > 1000 µM.
For the compound `CC(=O)OCCOP(=O)(COCCn1cnc2c(N)ncnc21)OCCOC(C)=O` [Example 17, 9-[[2-bis(2-acetoxyethyl)phosphonylmethoxy]ethyl]adenine], the inhibition in the series with HBV [1] amounted to 66.2%. Moreover, the CC50 in series [3] is > 1000 µM.
`Cc1ccc(Sc2nc(N)nc3c2ncn3CCOCP(=O)(OCC(F)(F)F)OCC(F)(F)F)cc1` [Example 24, 9-[2-[bis(2,2,2-trifluoroethyl)phosphonylmethoxy]ethyl]-2-amino-6-p-toluylthiopurine] yielded an inhibition in the series on HBV [1] of 99.9%.
With `Nc1nc(N)c2nnn(CCOCP(=O)(OCC(F)(F)F)OCC(F)(F)F)c2n1` [Example 5, 9-[2-[bis(2,2,2-trifluoroethyl)phosphonylmethoxy]ethyl]-8-aza-2,6-diaminopurine], the inhibition in the series on HBV [1] is 97.2%. For the same compound, the inhibition at 300 mg/kg in the series with HBV [7] stood at 87.2%.
Take `Nc1nc(N)c2ncn(CCOCP(=O)(O)O)c2n1` [PMDAP, 9-(2-phosphonylmethoxy)ethyl-2,6-diaminopurine]: the “reported to be effective on hepatitis B virus” value in the series with hepatitis B virus is reported as “effective”. Moreover, the “reported to be effective on human immunodeficiency virus” value in series [4] is reported as “effective”. Also, in series [5], the “reported to be effective on herpes simplex virus type-I” value is “effective”. For the same compound, the “reported to be effective on herpes simplex virus type-II” value in series [6] was “effective”.
In the series with HBV [1], `Nc1nc(Cl)c2ncn(CCOCP(=O)(OCC(F)(F)F)OCC(F)(F)F)c2n1` [Example 3, 9-[2-[bis(2,2,2-trifluoroethyl)phosphonylmethoxy]ethyl]-2-amino-6-chloropurine] had an inhibition of 99.9%. Besides, in the series on HBV [7], the inhibition at 300 mg/kg was 99.9%. In addition, in series [3], the CC50 stood at 399 µM.
In turn, `COCCOP(=O)(COCCn1cnc2c(N)ncnc21)OCCOC` [Example 14] yielded an inhibition in the series with HBV [1] of 55%. Besides, in the series with HBV [2] (setting [8]), the inhibition at 500 mg/kg is 25.4%. For the same compound, the CC50 in series [3] was > 1000 µM.
For the compound `Nc1nc(N)c2ncn(CCOCP(=O)(OCC(F)(F)F)OCC(F)(F)F)c2n1` [Example 2, 9-[2-[bis(2,2,2-trifluoroethyl)phosphonylmethoxy]ethyl]-2,6-diaminopurine], in the series on HBV [1], the inhibition came to 99.9%. Besides, the inhibition at 1000 mg/kg in the series with HBV [2] (setting [9]) was 71.9%. The CC50 in series [3] was found to be 840 µM.
Compound `Nc1nc2c(ncn2CCOCP(=O)(OCC(F)(F)F)OCC(F)(F)F)c(=O)[nH]1` [Example 20] returned an inhibition in the series on HBV [1] of 99.9%. Moreover, the inhibition at 300 mg/kg in the series with HBV [7] was 99.9%.
The compound `Nc1ncnc2c1ncn2CCOCP(=O)(OCC(F)(F)F)OCC(F)(F)F` [Example 1, 9-[2-[bis(2,2,2-trifluoroethyl)phosphonylmethoxy]ethyl]adenine] had an inhibition in the series on HBV [1] of 91.5%. Besides, the inhibition at 1000 mg/kg in the series with HBV [2] (setting [9]) is 89.9%. Besides, in series [3], the CC50 was > 1000 µM.
In the series with HBV [1], `Cc1ccc(Sc2nc(O)nc3c2ncn3CCOCP(=O)(OCC(F)(F)F)OCC(F)(F)F)cc1` [Example 25, 9-[2-[bis(2,2,2-trifluoroethyl)phosphonylmethoxy]ethyl]-2-hydroxy-6-p-toluylthiopurine] displayed an inhibition of 99.9%.
In the series on HBV [1], `Nc1ncnc2c1ncn2CCOCP(=O)(OCCOc1ccccc1)OCCOc1ccccc1` [Example 15, 9-[[2-bis(2-phenoxyethyl)phosphonylmethoxy]ethyl]adenine] registered an inhibition of 59.7%. For the same compound, the inhibition at 500 mg/kg in the series on HBV [2] (setting [8]) was 38.5%. Moreover, the CC50 in series [3] is 174 µM.
`Nc1nc2c(ncn2CCOCP(=O)(OCC(F)(F)F)OCC(F)(F)F)c(=S)[nH]1` [Example 23, 9-[2-[bis(2,2,2-trifluoroethyl)phosphonylmethoxy]ethyl]-6-thioguanine] registered an inhibition in the series on HBV [1] of 86.1%.
